Measurements reported in patent US10081630B2, “Radioactive halogen-labeled pyrido [1,2-A] benzimidazole derivative compound” (KYOTO UNIVERSITY, priority 2015, dated 2018).

Columns and labels:
[1] = system: tau accumulated in the brain with AD; experiment: In vitro autoradiography using autopsied brain tissue of Alzheimer's disease patient; type: binding, human
Procedure: (Evaluation 1) In Vitro Autoradiography Using Autopsied Brain Tissue of Alzheimer's Disease Patient (1) In Vitro Autoradiography
Autopsied brain tissue sections of an Alzheimer's disease (AD) patient (sections from a frontal lobe site and a temporal lobe site, 6 μm) were used, which were provided from Graduate School of Medicine, Kyoto University and National Cerebral and Cardiovascular Center Hospital. Deparaffinization treatment was performed by washing with xylene (15 min×2), ethanol (1 min×2), a 90 vol % aqueous ethanol solution (1 min×1), an 80 vol % aqueous ethanol solution (1 min×1), a 70 vol % aqueous ethanol solution (1 min×1), and purified water (2.5 min×2). A 10 vol % aqueous ethanol solution of each radioactive iodine-labeled BIP derivative compound (370 kBq/mL) obtained by the method shown in Example 7 was added thereto, and the tissue sections were incubated at room temperature for 2 hours. The tissue sections were washed with a 50 vol % aqueous ethanol solution (1 hr×1), then exposed to an imaging plate (BAS-SR2025 manufactured by Fujifilm Corp.), and analyzed using a bioimaging analyzer (bioimaging analyzer BAS-5000 manufactured by Fujifilm Corp.). Multi Gauge manufactured by Fujifilm Corp. was used in quantitative analysis.
FIGS. 5E and 5F show the results obtained using [^125I]BIP-NMe2. FIGS. 5G and 5H show the results obtained using [^125I]BIP-OMe. FIGS. 5I and 5J show the results obtained using [^125I]BIP-Me. FIGS. 5E, 5G, and 5I show the results obtained using the brain tissue section of the frontal lobe. FIGS. 5F, 5H, and 5J show the results obtained using the brain tissue section of the temporal lobe.
Tau and Aβ were immunostained using sections adjacent to the autopsied AD brain tissue sections used in autoradiography. An anti-phosphorylated tau monoclonal antibody (AT8, manufactured by Thermo Fisher Scientific Inc.) was used as a primary antibody in the immunostaining of tau, and an anti-Aβ1-42 monoclonal antibody (BC05, manufactured by Wako Pure Chemical Industries, Ltd.) was used as a primary antibody in the immunostaining of Aβ. Deparaffinization treatment was performed by washing with xylene (15 min×2), ethanol (1 min×2), a 90 vol % aqueous ethanol solution (1 min×1), an 80 vol % aqueous ethanol solution (1 min×1), a 70 vol % aqueous ethanol solution (1 min×1), and purified water (2.5 min×2). The antigens were retrieved by autoclaving (15 min) in a 0.01 mol/L citrate buffer solution (pH 6.0) and formic acid treatment (5 min). The tissue sections were washed with running water (5 min) and then washed with PBS-Tween 20 (2 min×1). The tissue sections were reacted with primary antibody solutions at room temperature for 1 hour and then washed with PBS-Tween 20 (5 min×3). The tissue sections were reacted with Histofine Simple Stain MAX-PO (MULTI) (manufactured by Nichirei Biosciences Inc.) at room temperature for 30 minutes and then washed with PBS-Tween 20 (3 min×3) and TBS (5 min×1). Finally, the tissue sections were reacted with a DAB solution at room temperature for 1 minute. The tissue sections were washed with distilled water (1 min×1) to terminate the reaction. The brain tissue sections were mounted on slides and then observed under a microscope (BZ-9000 manufactured by Keyence Corporation).
FIGS. 5A and 5B show the results obtained using the brain tissue section of the frontal lobe. FIGS. 5C and 5D show the results obtained using the brain tissue section of the temporal lobe. FIGS. 5A and 5C show the results of immunostaining with the antibody against tau. FIGS. 5B and 5D show the results of immunostaining with the antibody against Aβ.

[2] = Evaluation of in vivo radioactivity distribution in normal mouse; conditions: normal ddY male mice, tail vein; for radioactivity distribution, Blood / radioactivity distribution, Brain / radioactivity distribution, Heart / radioactivity distribution, Intestine / radioactivity distribution, Kidney / radioactivity distribution, Liver / radioactivity distribution, Lung / radioactivity distribution, Pancreas / radioactivity distribution, Spleen / radioactivity distribution, Stomach / radioactivity distribution, Thyroid gland: mean (SD)
Procedure: (Evaluation 2) Evaluation of In Vivo Radioactivity Distribution in Normal Mouse
Each compound of [^125I]BIP-NMe2, [^125I]BIP-OMe, and [^125I]BIP-Me synthesized according to the method shown in Example 7 was diluted with saline containing 10 vol % ethanol and 0.1 vol % Tween 80. Each radioactive iodine-labeled BIP derivative compound was administered to a group of 5-week-old ddY male mice (26 to 28 g; each group involved 5 mice) from the tail veins thereof at 19.6 to 29.4 kBq (100 μL) per mouse. After 2, 10, 30, or 60 minutes, the mice were slaughtered. After blood collection, the organs were taken out, and their weights and radioactivity were measured.
In Tables 2 to 4, the numerical values shown in the column “Time after administration” are means of % ID for the stomach and the thyroid gland and means of % ID/g for the other tissues with standard deviation (SD) shown in parenthesis.

SMILES: CN(C)c1ccn2c(c1)nc1cc([125I])ccc12 [[^125I]BIP-NMe2, 7-[^125I]iodo-3-dimethylaminopyrido[1,2-a]benzimidazole]
- radioactivity accumulation in the brain tissue section of the frontal lobe ([1]; AD patient autopsied brain section, frontal lobe, 370 kBq/mL, 2 hours room temperature): none
- radioactivity accumulation in the brain tissue section of the temporal lobe ([1]; AD patient autopsied brain section, temporal lobe, 370 kBq/mL, 2 hours room temperature): exhibited radioactivity accumulation in only the brain tissue section of the temporal lobe
- nonspecific binding to the brain white matter ([1]; AD patient autopsied brain sections): low
- visualization of tau (autoradiography compared with tau and Aβ immunostaining) ([1]; AD patient temporal lobe section, adjacent sections immunostained (AT8, BC05)): clearly visualizes tau accumulated in the brain with AD
- clearance from the brain [2]: rapid clearance from the brain
- transfer to the brain early after administration [2]: high transfer to the brain
- radioactivity distribution, Blood ([2]; 2 min after administration): 2.91(0.75) % ID/g
- radioactivity distribution, Brain ([2]; 2 min after administration): 3.98(0.32) % ID/g
- radioactivity distribution, Heart ([2]; 2 min after administration): 6.38(1.09) % ID/g
- radioactivity distribution, Intestine ([2]; 2 min after administration): 3.07(0.52) % ID/g
- radioactivity distribution, Kidney ([2]; 2 min after administration): 14.3(1.91) % ID/g
- radioactivity distribution, Liver ([2]; 2 min after administration): 9.78(2.50) % ID/g
- radioactivity distribution, Lung ([2]; 2 min after administration): 8.80(1.70) % ID/g
- radioactivity distribution, Pancreas ([2]; 2 min after administration): 5.66(1.03) % ID/g
- radioactivity distribution, Spleen ([2]; 2 min after administration): 2.97(0.92) % ID/g
- radioactivity distribution, Stomach ([2]; 2 min after administration): 1.71(0.43) % ID
- radioactivity distribution, Thyroid gland ([2]; 2 min after administration): 0.05(0.03) % ID
- radioactivity distribution, Blood ([2]; 10 min after administration): 1.48(0.18) % ID/g
- radioactivity distribution, Brain ([2]; 10 min after administration): 1.66(0.16) % ID/g
- radioactivity distribution, Heart ([2]; 10 min after administration): 2.53(0.24) % ID/g
- radioactivity distribution, Intestine ([2]; 10 min after administration): 7.45(0.50) % ID/g
- radioactivity distribution, Kidney ([2]; 10 min after administration): 17.0(1.70) % ID/g
- radioactivity distribution, Liver ([2]; 10 min after administration): 18.1(0.53) % ID/g
- radioactivity distribution, Lung ([2]; 10 min after administration): 3.59(0.43) % ID/g
- radioactivity distribution, Pancreas ([2]; 10 min after administration): 4.77(0.27) % ID/g
- radioactivity distribution, Spleen ([2]; 10 min after administration): 5.15(0.84) % ID/g
- radioactivity distribution, Stomach ([2]; 10 min after administration): 3.30(0.49) % ID
- radioactivity distribution, Thyroid gland ([2]; 10 min after administration): 0.03(0.01) % ID
- radioactivity distribution, Blood ([2]; 30 min after administration): 1.18(0.26) % ID/g
- radioactivity distribution, Brain ([2]; 30 min after administration): 0.38(0.03) % ID/g
- radioactivity distribution, Heart ([2]; 30 min after administration): 1.00(0.15) % ID/g
- radioactivity distribution, Intestine ([2]; 30 min after administration): 14.5(3.43) % ID/g
- radioactivity distribution, Kidney ([2]; 30 min after administration): 7.45(1.11) % ID/g
- radioactivity distribution, Liver ([2]; 30 min after administration): 12.7(1.35) % ID/g
- radioactivity distribution, Lung ([2]; 30 min after administration): 1.77(0.31) % ID/g
- radioactivity distribution, Pancreas ([2]; 30 min after administration): 1.51(0.19) % ID/g
- radioactivity distribution, Spleen ([2]; 30 min after administration): 2.97(0.44) % ID/g
- radioactivity distribution, Stomach ([2]; 30 min after administration): 6.35(1.13) % ID
- radioactivity distribution, Thyroid gland ([2]; 30 min after administration): 0.02(0.01) % ID
- radioactivity distribution, Blood ([2]; 60 min after administration): 0.93(0.23) % ID/g
- radioactivity distribution, Brain ([2]; 60 min after administration): 0.16(0.01) % ID/g
- radioactivity distribution, Heart ([2]; 60 min after administration): 0.63(0.05) % ID/g
- radioactivity distribution, Intestine ([2]; 60 min after administration): 23.5(3.65) % ID/g
- radioactivity distribution, Kidney ([2]; 60 min after administration): 5.45(1.90) % ID/g
- radioactivity distribution, Liver ([2]; 60 min after administration): 5.82(0.91) % ID/g
- radioactivity distribution, Lung ([2]; 60 min after administration): 0.99(0.07) % ID/g
- radioactivity distribution, Pancreas ([2]; 60 min after administration): 0.80(0.15) % ID/g
- radioactivity distribution, Spleen ([2]; 60 min after administration): 1.97(0.25) % ID/g
- radioactivity distribution, Stomach ([2]; 60 min after administration): 7.59(1.39) % ID
- radioactivity distribution, Thyroid gland ([2]; 60 min after administration): 0.01(0.00) % ID
